What was measured:
Format in all cases: cell-based
NAMPT [1] = assay: NAMPT expression by FACS in transfected Nalm-6 cells
Experimental: One to two million NALM-6 transfected cells were collected 48 hours after transfection and fixed using 500 μl fixation and permeabilization buffer prior to immunofluorescent staining of intracellular proteins (e.g., BD Phosflow™ Fix Buffer I (BD Biosciences, San Jose, Calif., USA)) for 15 minutes. Then, pellets were washed twice using PBS and resuspended in 500 μl methanol. Samples were incubated for 2 hours in −20° C. For staining, pellets were washed with PBS and resuspended in 10 ml BD™ Cell Wash buffer (BD Biosciences, San Jose, Calif., USA) containing 2% FCS. The cells were stained for NAMPT using anti-NAMPT antibody (Ab) (1:1000) (R&D Systems®, MN, USA). […] The cells were sorted on flow cytometer (Calibur™ flow cytometer, Becton Dickinson, Le Pont-De-Claix, France) and analyzed using BD CellQuest™ Pro software.
Using open access software programs (TargetScan and miRanda), NAMPT was identified as a predicted target of miR-451. […] NAMPT expression was measured by FACS analysis using a specific NAMPT antibody.
In order to assess a possible association or correlation between miR-451 expression levels and sensitivity to in-vivo treatment of ALL with a NAMPT inhibitor, the effect of the NAMPT inhibitor FK866 was assessed in the presence of elevated levels or lowered levels of miR-451 in ALL xenograft mouse model. […] Tumors volume was measured daily.

Nalm-6 cells [2] = assay: Annexin V-FITC apoptosis assay in Nalm-6 cells; conditions: NALM-6 cells, transient expression
Excerpt: Cells were stained with annexin V-fluorescein-5-isothiocyanate (FITC) conjugated antibody and propidium iodide (PI) using the Annexin V-FITC Apoptosis Detection Kit (ab14085, Abcam® Incorporated, Cambridge, Mass., USA) according to manufacturer's instructions (see, for example, https://www.abcam.com/ps/products/14/ab14085/documents/ab14085%20Annexin %20V%20FITC%20Apoptosis%20Detection%20Kit%20v4%20(website).pdf), and read on the flow cytometer. Annexin V Apoptosis Detection Kit is based on the observation that soon after initiating apoptosis, cells translocate the membrane phosphatidylserine (PS) from the inner face of the plasma membrane to the cell surface. Once on the cell surface, PS can be easily detected by staining with a fluorescent conjugate (e.g., FITC) of Annexin V, a protein that has a high affinity for PS. The one-step staining procedure takes only 10 minutes. When performing both Annexin V-FITC and PI staining, it is possible to differentiate apoptosis vs necrosis.
(§1) To measure the effect of NAD^+ depletion following FK866 treatment of Nalm-6 cells, apoptosis and viability were measured as described in Materials and Methods. Nalm-6 cells were treated for 48 hours with 1 nM FK866, and then apoptosis was measured using FACS.

Nalm-6 cells [3] = assay: XTT cell viability assay in Nalm-6 cells; conditions: NALM-6 cells, transient expression
Experimental: Cell viability assay was performed using the Cell Proliferation Kit comprising the second-generation tetrazolium dye, XTT. Viable cells with active metabolism convert XTT into an orange colored reduction product, whereas dead cells lose the ability to reduce XTT, thus, color formation serves as a useful and convenient marker of only the viable cells.
The XTT kit was applied to NALM6 transfected cells according to the manufacturer's protocol (Biological Industries, Kibbutz Beit Haemek, Israel). Cells were incubated for 3 hours with the XTT reagent and quantity of reduced XTT (directly proportional to the number of viable cells) was assessed by recording changes in absorbance as measured on a microplate reader at 450-500 nm optical density (OD).
as §1

NAMPT [4] = assay: Western blot of NAMPT in transfected NALM-6 cells; conditions: NALM-6 transient
Excerpt: (§2) Protein was extracted from NALM-6 cell line using Qproteome™ lysis buffer (Qiagen, Hilden, Germany). The membrane was then probed with one or more of the following antibodies: anti-disintegrin and metalloproteinase domain-containing protein 10 (ADAM10) (1:1000) (Abcam; Cambridge, UK) (see Example 9); anti-chemokine C-X-C motif 16 (CXCL16) (1:1000); anti-NAMPT (1:1000); and anti-GAPDH (1:5000) (Santa Crus Biotechnology, Santa Crus, Calif., USA) (see Examples 5 and 9). The secondary antibodies were goat anti-mouse and goat anti-rabbit (1:10,000) (Sigma®, Saint Louis, Mo., USA), for each antigen according to the manufacturer's instructions. […]
(§3) Intensity of the protein band was measured using an in-house program. […]
(§4) Possible miR-451 targets were evaluated using several open access software programs (e.g., Targetscan, PicTar, miRanda, miRDB). […] In the first screening, the suppression of ADAM10, CXCL16 and NAMPT protein level was analyzed in NALM-6 cells transiently expressing miR-451 mimic (SEQ ID NO: 2) and in cells transiently expressing scrambled-miR (universal sequence; negative control) by Western blot as described in Materials and Methods. […]

ADAM10 = assay: Western blot of ADAM10 in transfected NALM-6 cells; conditions: NALM-6 transient
Excerpt: as §2, §3, §4

Substance: miR-451 mimic: a dsmiR-451 designed to copy or mimic the functionality of mature endogenous miR-451 upon transfection (AAACCGUUACCAUUACUGAGUU; double-stranded mimic, further chemistry not given here; listed as Homo sapiens)
- NAMPT protein expression decreased by (NAMPT [1]): 46%
- effect on apoptosis rate (Nalm-6 cells [2]): No effect
- effect on viability (Nalm-6 cells [3]): No effect
- NAMPT protein expression levels compared to scrambled-miR (NAMPT [4]): reduced
- ADAM10 protein level compared to scrambled-miR (ADAM10): only NAMPT protein expression levels were reduced

— patent publication US20190167711A1, “METHODS FOR DIAGNOSIS AND TREATMENT OF ACUTE LYMPHOBLASTIC LEUKEMIA” (MOR RESEARCH APPLICATIONS LTD., priority 2014, published 2019)
